# Counter-ions that a name gives are not always drawn.
# Assays:
# [1] = target: T1, recombinant human secreted phospholipase A2 (Homo sapiens, UniProt P14555); assay: chromogenic assay of recombinant human secreted phospholipase A2 inhibition; assay type: biochemical; conditions: diheptanoyl thio-PC substrate, pH 7.5, 40° C. 30 minutes, absorbance at 405 nanometers, triplicate
# T1 sequence (P14555 21-144): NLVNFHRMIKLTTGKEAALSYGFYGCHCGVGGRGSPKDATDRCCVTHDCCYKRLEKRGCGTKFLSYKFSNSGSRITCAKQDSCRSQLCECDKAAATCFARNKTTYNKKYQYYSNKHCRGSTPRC
# Excerpt: The following chromogenic assay procedure was used to identify and evaluate inhibitors of recombinant human secreted phospholipase A2. The assay described herein has been adapted for high volume screening using 96 well microtiter plates. A general description of this assay method is found in the article, “Analysis of Human Synovial Fluid Phospholipase A2 on Short Chain Phosphatidylcholine-Mixed Micelles: Development of a Spectrophotometric Assay Suitable for a Microtiterplate Reader”, by Laure J. Reynolds, Lori L. Hughes, and Edward A. Dennis, Analytical Biochemistry, 204, pp. 190–197, 1992 (the disclosure of which is incorporated herein by reference): […]
# A measured volume of racemic dipheptanoyl thio PC supplied in chloroform at a concentration of 100 mg/ml is taken to dryness and redissolved in 10 millimolar TRITON X-100™ nonionic detergent aqueous solution. […]
# 5. Read absorbance of wells at 405 nanometers with an automatic plate reader.
# Tests were done in triplicate. […] Compounds initially found to be active were re-assayed to confirm their activity and, if sufficiently active, IC50 values were determined. […] In all cases, % inhibition measured at 405 nanometers generated by enzyme reactions containing inhibitors relative to the uninhibited control reactions was determined. […]
Structure (SMILES),IC50 [1] [µM],melting point [°C]
"NC(=O)c1cccc2c1c1c(OCC(=O)O)c3ccccc3cc1n2Cc1ccccc1 [Example 1, (5-Benzyl-1-carbamoyl-5H-benzo[b]carbazol-11-yloxy)-acetic acid, sodium salt]",38.6,–
"NC(=O)c1cccc2c1c1c(OCC(=O)O)c3c(cc1n2Cc1ccccc1)CCCC3 [Example 2, (5-Benzyl-1-carbamoyl-7,8,9,10-tetrahydro-5H-benzo[b]carbazol-11-yloxy)-acetic acid, sodium salt]",410,–
"NC(=O)c1c2ccsc2nc2c1c1ccccc1n2Cc1ccccc1 [Example 3, 9-Benzyl-9H-1-thia-9,10-diaza-cyclopenta[b]fluorene-4-carboxylic acid amide]",–,242 to 245

# Reference: US6992100B2, “sPLA2 inhibitors” (Eli Lilly and Company, priority 2001, dated 2006)
